{"source": "PubChem BioAssay (NCI)", "test_in_all_cases": "DTP human tumour cell line panel, 48 h", "key": {"[1]": {"tested_on": "HL-60(TB) leukemia"}, "[2]": {"tested_on": "K-562 leukemia"}, "[3]": {"tested_on": "786-0 renal"}, "[4]": {"tested_on": "RXF 393 renal"}, "[5]": {"tested_on": "MALME-3M melanoma"}, "[6]": {"tested_on": "NCI-H460 lung"}, "[7]": {"tested_on": "MDA-N"}, "[8]": {"tested_on": "EKVX NSCLC"}, "[9]": {"tested_on": "SK-OV-3 ovarian"}, "[10]": {"tested_on": "IGROV1 ovarian"}, "[11]": {"tested_on": "SK-MEL-5 melanoma"}}, "note": "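Growth conditions: 96-well plates. Treatment: test compound, 48 hours, 5 concentrations. Analysis: linear interpolation between bracketing concentrations; unreached endpoints set to highest concentration. At the TGI there is no net growth.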"}
{"smiles": "CCOC(=O)[C@H](Cc1ccc(O)cc1)N=C1[C@H]2CCC[C@]1(O)[C@@](C)([N+](=O)[O-])C2", "values": [{"measurement": "TGI", "setting": "[1]", "value": "> 100", "unit": "µM"}, {"measurement": "TGI", "setting": "[2]", "value": "> 100", "unit": "µM"}, {"measurement": "TGI", "setting": "[3]", "value": "> 100", "unit": "µM"}, {"measurement": "TGI", "setting": "[4]", "value": "> 100", "unit": "µM"}, {"measurement": "TGI", "setting": "[5]", "value": "> 100", "unit": "µM"}, {"measurement": "TGI", "setting": "[6]", "value": "> 100", "unit": "µM"}, {"measurement": "TGI", "setting": "[7]", "value": "> 100", "unit": "µM"}, {"measurement": "TGI", "setting": "[8]", "value": "> 100", "unit": "µM"}, {"measurement": "TGI", "setting": "[9]", "value": "> 100", "unit": "µM"}, {"measurement": "TGI", "setting": "[10]", "value": "> 100", "unit": "µM"}, {"measurement": "TGI", "setting": "[11]", "value": "> 100", "unit": "µM"}]}
{"smiles": "COc1ccc(/C=C2\\CN(C)C/C(=C\\c3ccc(OC)c(OC)c3OC)C2=O)c(OC)c1OC", "values": [{"measurement": "TGI", "setting": "[1]", "value": 0.044, "unit": "µM"}, {"measurement": "TGI", "setting": "[3]", "value": 0.806, "unit": "µM"}, {"measurement": "TGI", "setting": "[4]", "value": 0.342, "unit": "µM"}, {"measurement": "TGI", "setting": "[5]", "value": 0.333, "unit": "µM"}, {"measurement": "TGI", "setting": "[6]", "value": 0.435, "unit": "µM"}, {"measurement": "TGI", "setting": "[7]", "value": 1.25, "unit": "µM"}, {"measurement": "TGI", "setting": "[8]", "value": 4.37, "unit": "µM"}, {"measurement": "TGI", "setting": "[9]", "value": 1.89, "unit": "µM"}, {"measurement": "TGI", "setting": "[10]", "value": 1.07, "unit": "µM"}, {"measurement": "TGI", "setting": "[11]", "value": 0.705, "unit": "µM"}]}
{"smiles": "c1ccc2c3c([nH]c2c1)C1CCCN1CC3", "note": "(stereo not drawn)", "values": [{"measurement": "TGI", "setting": "[1]", "value": "> 10", "unit": "µM"}, {"measurement": "TGI", "setting": "[2]", "value": "> 10", "unit": "µM"}, {"measurement": "TGI", "setting": "[3]", "value": "> 10", "unit": "µM"}, {"measurement": "TGI", "setting": "[4]", "value": "> 10", "unit": "µM"}, {"measurement": "TGI", "setting": "[5]", "value": "> 10", "unit": "µM"}, {"measurement": "TGI", "setting": "[6]", "value": "> 10", "unit": "µM"}, {"measurement": "TGI", "setting": "[7]", "value": "> 10", "unit": "µM"}, {"measurement": "TGI", "setting": "[8]", "value": "> 10", "unit": "µM"}, {"measurement": "TGI", "setting": "[9]", "value": "> 10", "unit": "µM"}, {"measurement": "TGI", "setting": "[10]", "value": "> 10", "unit": "µM"}, {"measurement": "TGI", "setting": "[11]", "value": "> 10", "unit": "µM"}]}
{"smiles": "CCN(c1cccc(NC(=S)Nc2ccccc2N(CC)c2cc(-c3ccccc3)no2)c1)c1cc(-c2ccccc2)no1", "values": [{"measurement": "TGI", "setting": "[1]", "value": "> 100", "unit": "µM"}, {"measurement": "TGI", "setting": "[2]", "value": "> 100", "unit": "µM"}, {"measurement": "TGI", "setting": "[3]", "value": "> 100", "unit": "µM"}, {"measurement": "TGI", "setting": "[4]", "value": "> 100", "unit": "µM"}, {"measurement": "TGI", "setting": "[5]", "value": "> 100", "unit": "µM"}, {"measurement": "TGI", "setting": "[6]", "value": "> 100", "unit": "µM"}, {"measurement": "TGI", "setting": "[7]", "value": "> 100", "unit": "µM"}, {"measurement": "TGI", "setting": "[8]", "value": "> 100", "unit": "µM"}, {"measurement": "TGI", "setting": "[9]", "value": "> 100", "unit": "µM"}, {"measurement": "TGI", "setting": "[10]", "value": "> 100", "unit": "µM"}, {"measurement": "TGI", "setting": "[11]", "value": "> 100", "unit": "µM"}]}
{"smiles": "O=[As](O)(O)c1ccc(N=Nc2ccc(O)cc2)cc1", "values": [{"measurement": "TGI", "setting": "[1]", "value": "> 100", "unit": "µM"}, {"measurement": "TGI", "setting": "[2]", "value": "> 100", "unit": "µM"}, {"measurement": "TGI", "setting": "[3]", "value": "> 100", "unit": "µM"}, {"measurement": "TGI", "setting": "[4]", "value": "> 100", "unit": "µM"}, {"measurement": "TGI", "setting": "[5]", "value": "> 100", "unit": "µM"}, {"measurement": "TGI", "setting": "[6]", "value": "> 100", "unit": "µM"}, {"measurement": "TGI", "setting": "[7]", "value": "> 100", "unit": "µM"}, {"measurement": "TGI", "setting": "[8]", "value": "> 100", "unit": "µM"}, {"measurement": "TGI", "setting": "[9]", "value": "> 100", "unit": "µM"}, {"measurement": "TGI", "setting": "[10]", "value": "> 100", "unit": "µM"}, {"measurement": "TGI", "setting": "[11]", "value": "> 100", "unit": "µM"}]}
{"smiles": "CCOC(=O)c1ccc(C(=O)C(C(C)=O)C(=O)OC(C)(C)C)[nH]1", "note": "(stereo not drawn)", "values": [{"measurement": "TGI", "setting": "[1]", "value": "> 100", "unit": "µM"}, {"measurement": "TGI", "setting": "[2]", "value": "> 100", "unit": "µM"}, {"measurement": "TGI", "setting": "[3]", "value": "> 100", "unit": "µM"}, {"measurement": "TGI", "setting": "[4]", "value": "> 100", "unit": "µM"}, {"measurement": "TGI", "setting": "[5]", "value": "> 100", "unit": "µM"}, {"measurement": "TGI", "setting": "[6]", "value": "> 100", "unit": "µM"}, {"measurement": "TGI", "setting": "[7]", "value": "> 100", "unit": "µM"}, {"measurement": "TGI", "setting": "[8]", "value": "> 100", "unit": "µM"}, {"measurement": "TGI", "setting": "[9]", "value": "> 100", "unit": "µM"}, {"measurement": "TGI", "setting": "[10]", "value": "> 100", "unit": "µM"}, {"measurement": "TGI", "setting": "[11]", "value": "> 100", "unit": "µM"}]}
{"smiles": "C=CCOC(=O)C1C2OC3(C(C(=O)OC)=C2C(=O)OC)c2ccccc2CCC13", "note": "(stereo not drawn)", "values": [{"measurement": "TGI", "setting": "[1]", "value": "> 10", "unit": "µM"}, {"measurement": "TGI", "setting": "[2]", "value": "> 10", "unit": "µM"}, {"measurement": "TGI", "setting": "[3]", "value": "> 10", "unit": "µM"}, {"measurement": "TGI", "setting": "[4]", "value": "> 10", "unit": "µM"}, {"measurement": "TGI", "setting": "[5]", "value": "> 10", "unit": "µM"}, {"measurement": "TGI", "setting": "[6]", "value": "> 10", "unit": "µM"}, {"measurement": "TGI", "setting": "[7]", "value": "> 10", "unit": "µM"}, {"measurement": "TGI", "setting": "[8]", "value": "> 10", "unit": "µM"}, {"measurement": "TGI", "setting": "[9]", "value": "> 10", "unit": "µM"}, {"measurement": "TGI", "setting": "[10]", "value": "> 10", "unit": "µM"}, {"measurement": "TGI", "setting": "[11]", "value": "> 10", "unit": "µM"}]}
{"smiles": "COC12c3ccccc3-c3ccccc3C1[C@H]1C(=O)OC(=O)[C@H]12", "note": "(stereo partly drawn)", "values": [{"measurement": "TGI", "setting": "[1]", "value": "> 10", "unit": "µM"}, {"measurement": "TGI", "setting": "[2]", "value": "> 10", "unit": "µM"}, {"measurement": "TGI", "setting": "[3]", "value": "> 10", "unit": "µM"}, {"measurement": "TGI", "setting": "[4]", "value": "> 10", "unit": "µM"}, {"measurement": "TGI", "setting": "[5]", "value": "> 10", "unit": "µM"}, {"measurement": "TGI", "setting": "[6]", "value": "> 10", "unit": "µM"}, {"measurement": "TGI", "setting": "[7]", "value": "> 10", "unit": "µM"}, {"measurement": "TGI", "setting": "[8]", "value": "> 10", "unit": "µM"}, {"measurement": "TGI", "setting": "[9]", "value": "> 10", "unit": "µM"}, {"measurement": "TGI", "setting": "[10]", "value": "> 10", "unit": "µM"}, {"measurement": "TGI", "setting": "[11]", "value": "> 10", "unit": "µM"}]}
{"smiles": "COC(=O)C1=C(OC(=O)c2ccccc2)C(C(=O)OC)[C@]2(O)[C@@H](C(=O)OC)[C@H]1C[C@@H](c1ccccc1)[C@@H]2C(=O)OC", "note": "(stereo partly drawn)", "values": [{"measurement": "TGI", "setting": "[1]", "value": 21.1, "unit": "µM"}, {"measurement": "TGI", "setting": "[2]", "value": 18, "unit": "µM"}, {"measurement": "TGI", "setting": "[3]", "value": 93.8, "unit": "µM"}, {"measurement": "TGI", "setting": "[4]", "value": 19.8, "unit": "µM"}, {"measurement": "TGI", "setting": "[5]", "value": 52.1, "unit": "µM"}, {"measurement": "TGI", "setting": "[6]", "value": 42.4, "unit": "µM"}, {"measurement": "TGI", "setting": "[7]", "value": 3.95, "unit": "µM"}, {"measurement": "TGI", "setting": "[8]", "value": "> 100", "unit": "µM"}, {"measurement": "TGI", "setting": "[9]", "value": 48.3, "unit": "µM"}, {"measurement": "TGI", "setting": "[10]", "value": 21.1, "unit": "µM"}, {"measurement": "TGI", "setting": "[11]", "value": 17.4, "unit": "µM"}]}
